Results taken from patent EP4122461A1 (priority 2021, dated 2023).

Columns and labels:
[1] = test system: SARS-2-S-driven cell entry; format: cell-based, SARS-CoV-2
[2] = test system: SARS-CoV-2 isolate hCoV-19/Germany/FI1103201/2020; format: cell-based; details: PCLS from a single donor; Fig. 1C
[3] = blood and urine; cited from earlier work
[4] = across a 100-fold dose range; cohort of healthy subjects; cited from earlier work
[5] = in vivo; cited from earlier work

Structure (SMILES) | IC50 [1] | inhibitory effects in human PCLS [2] | SARS-CoV-2 cell entry is inhibited [1] | stability of ester and amide groups [3] | tolerability [4] | plasma distribution and elimination [5]
CN(C)C(=O)COC(=O)Cc1ccc(OC(=O)c2ccc(NC(=N)N)cc2)cc1 [Camostat, camostat] | 151 nM | comparable | – | – | – | –
COC(=O)[C@H](Cc1cccc(C(=N)N)c1)[C@@H](C)NC(=O)c1ccc(-c2cc[n+]([O-])cc2)cc1 [Otamixaban, otamixaban] | 18700 nM | comparable | 36% | stable | well tolerated | rapid plasma distribution and elimination
N=C(N)c1ccc2cc(OC(=O)c3ccc(N=C(N)N)cc3)ccc2c1 [Nafamostat, nafamostat] | 11.8 nM | – | – | – | – | –
